Reference: patent US10364263B2, “Cyclic phosphates and cyclic phosphoramidates for the treatment of neurologic disorders” (Retrophin, Inc., priority 2015, dated 2019)

Legend:
[1] = Stability in mouse hepatocytes; assay type: in vitro ADME
[2] = Stability in human hepatocytes; assay type: in vitro ADME; settings: for half-life: Diastereoisomer A (upfield shift in 31P NMR), 5 μM, 1 million cells/ml, 37° C., human hepatocytes, read-out: t1/2, Human Hepatocytes, Diastereoisomer A (converted); for half-life at 5 µM: t1/2, Human Hepatocytes
[3] = Permeability in porcine brain endothelial cell blood-brain barrier model; assay type: in vitro ADME; settings: pig (endothelial cells), co-cultured with rat astrocytes, pH 7.4, PBECs/As blood-brain barrier model, luminal to basal; Diastereoisomer A; read-out: Papp Diastereoisomer A
Excerpt: Compounds disclosed herein show the potential to reach mammalian brain by crossing the blood-brain barrier (BBB) from systemic circulation. […] The porcine brain endothelial cell permeability assay is an in vitro BBB model to be used for the prediction of central nervous system (CNS) drug permeability in vivo and for ranking or prioritization of compounds according to their permeability. This system can also be used for mechanistic studies and drug delivery strategies via receptor-mediated transport (transcytosis). The system is a two-dimensional co-culture, non-contact model of two types of primary cells: primary brain endothelial cells obtained from fresh porcine brains, and primary rat astrocytes, obtained from neonatal rats. This ensures barrier formation and functional expression of key transporters.
The endothelial cells were cultured on rat-tail collagen type I and human fibronectin coated Transwell polycarbonate inserts (surface area 0.7 cm^2; pore size 0.4 μm) and the inserts were placed in 24-well plates containing confluent rat astrocytes. This system allows for the formation of a differentiated BBB model suitable for compound permeability in 10 days.
On the day of the experiment, culture medium was removed and cells were pre-incubated for 30 min with HBSS containing 20 mM Hepes pH 7.4 and 0.1% BSA. Donor volume (apical) was 400 μl and receiver volume (basal) 900 μl. Compounds were diluted in assay medium (at the desired concentration) and added to the luminal side (to mimic blood to brain passage). Transport was measured usually after 60 min by detecting the amount of compound from the basal (brain side). The integrity of the cell layers was assessed by measuring the transendothelial electrical resistance (TEER) and by monitoring FITC-dextran (40 KDa) permeation. Inserts with TEER values […] were selected for permeability studies. As FITC-dextran cannot freely permeate lipophilic barriers, a high degree of FITC-dextran transport indicates poor integrity of the cell layer and wells with high FITC-dextran permeability were excluded. FITC-dextran was included as internal control in each insert used for permeability studies. Fluorescence was measured using a fluorimetric detector. Radioactivity was measured by scintillation counting. For LC-MS/MS analysis, aliquots (200 μl) from the basal compartment were diluted with an equal volume of 100% acetonitrile containing 0.1% formic acid, centrifuged to remove cell debris, and evaporated under N2. After reconstitution, samples were analyzed by LC-MS/MS. Mass balance was determined considering the amount of compound recovered in the donor and receiver chamber at the end of the assay relative to the amount added to the donor chamber at time 0.
Permeability was defined as the apparent permeability coefficient (Papp), which is a measure of the appearance rate of the compound in the receiver chamber, expressed in cm/s. Papp is calculated according the following equation: Papp[cm/sec]=Vd*ΔMr/A*Md*Δt, Equation 2: where
Vd=volume in the donor compartment in cm^3 or mL;
ΔMr=total amount of compound in the receiver compartment after t seconds;
Md=donor amount (added at time 0)
Δt=time measured in seconds
A=filter area in cm^2 (for 24 well plate, A=0.7 cm^2).
To correct for the contribution of filter and substrate, Papp was also determined for the cell-free system. Permeability of the endothelial cell layer was determined using the following equation: […], Equation 3: where
Ptotal=the P of the total system,
Pf=P for the cell-free filter, and
Pe=P for the endothelial cell layer alone. In this equation, the total resistance of the system towards passage of a substance is additively composed of two […] resistances: that of the cell monolayer and that of the filter.

physchem = settings: buffer, phosphate buffered saline, 10 mM phosphate buffer pH 7.5, 37° C.
Protocol: (§2) To measure chemical stability in aqueous solution, the half-life (t1/2), or time needed for the concentration to decrease by half, was determined for select compounds in phosphate buffered saline solution. Compounds were dissolved in a solution containing 10 mM phosphate buffer (pH 7.5) and 5% of D2O to a final concentration of −1 mM. All spectra were obtained at 37° C. on a Bruker Avance 600 NMR spectrometer equipped with an inverse broad-band probe with z-gradients. Data were obtained every 15 min for a total time period of 4 h or longer, according to the observed stability. ^31P NMR was performed at 242.55 MHz, with gated decoupling of the protons. An observation frequency range of 14619.9 Hz and 32 K complex data points were used for acquisition. A pulse angle of 90° and a 4-sec pulse cycle were utilized. Thirty-two accumulations were obtained before Fourier transformation of the free induction decay. ^1H NMR spectra were acquired using the 1DNOESY experiment with water presaturation for better solvent suppression. An observation frequency range of 12019.23 Hz, a 10-sec pulse cycle, and 32 K complex data points were used for acquisition. Sixty-four scans were added prior to Fourier transformation. Integral data were obtained using the TopSpin software.
(§3) Stability was determined based on analysis of disappearance of the compounds as a function of incubation time. Quantification of test compounds was measured as a peak area relative to an internal standard. The elimination constant, k, was calculated by plotting mean disappearance values on a semi-logarithmic scale and fitting with a best fit linear regression. The half-life (t1/2) expressed in hours was derived using Equation 1: t1/2=ln2/(−k). Equation 1:

[4] = test system: PANK2 silenced human neuroblastoma IMR32 cells (PANK2−/−); test: Coenzyme A assay in PANK2 silenced cells (LC-MS quantification of free CoA); assay type: cell-based; settings: compound added twice (24 h + 24 h), relative to 0.1% DMSO controls
Outline: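 PANK2 shRNA-silenced IMR32 neuroblastoma cells were treated with compound (0.1% DMSO) for 24 h, then re-dosed with fresh compound for a further 24 h at 37 °C. TFA extracts of 1×10^6 cells were assayed for free CoA by LC-MS/MS (MRM 768.1→261.6/136.1). Results are given as fold change versus DMSO controls.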

[5] = Stability in mouse plasma; assay type: in vitro ADME; settings: mouse, plasma
Outline: (§1)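 Test compound at 3 μM (0.1% DMSO) was incubated in mouse or human plasma at 37 °C and sampled in duplicate at 0, 10, 20, 30, 40 and 60 min. Reactions were stopped with acetonitrile/formic acid containing internal standard. Remaining parent was measured by UPLC-MS/MS without a calibration curve.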

[6] = Stability in human plasma; assay type: in vitro ADME; settings: human, plasma, 37° C.
Outline: as §1

[7] = Chemical stability in aqueous solution (phosphate buffered saline, NMR); settings: 10 mM phosphate buffer pH 7.5, 37° C.
Protocol: as §2, §3

[8] = Diastereoisomer A (upfield shift in 31P NMR), 5 μM, 1 million cells/ml, 37° C., mouse hepatocytes, read-out: t1/2, Mouse Hepatocytes, Diastereoisomer A (converted)
[9] = pH 7.5, t1/2 (h) Diastereoisomer A, Diastereoisomer A = upfield shift in the 31P NMR
[10] = t1/2, Mouse Hepatocytes, Diastereoisomer A
[11] = t1/2, Mouse Hepatocytes, Diastereoisomer B
[12] = pH 7.5, t1/2 (h) Diastereoisomer B, Diastereoisomer B

Row | Compound | half-life (physchem; [9]) | PANK2−/− CoA (Fold Increase): fold increase in Coenzyme A (CoA) levels relative to controls [4] | half-life at 5 µM [1, 10] | half-life at 5 µM ([2]; Diastereoisomer A) | half-life at 1 mM [7, 9] | half-life (physchem; [12]) | further results
1 | COC(=O)CCNC(=O)[C@@H]1O[P@@](=O)(NCc2ccccc2)OCC1(C)C [Compound No. 115, Methyl 3-((2R,4R)-2-(benzylamino)-5,5-dimethyl-2-oxido-1,3,2-dioxaphosphinane-4-carboxamido)propanoate] | > 60 h | – | – | – | – | – | half-life at 5 µM [1, 8]: < 0.25 h; half-life [2]: 0.64 h; Papp A→B at 60 min [3]: 4.03 ×10⁻⁶ cm/s
2 | CCC(CC)COC(=O)[C@H](C)NP1(=O)OCC(C)(C)[C@H](C(=O)NCCC(=O)OC)O1 (stereo partly drawn) [compound 7, 2-ethylbutyl ((4R)-4-((3-methoxy-3-oxopropyl)carbamoyl)-5,5-dimethyl-2-oxido-1,3,2-dioxaphosphinan-2-yl)-L-alaninate] | > 40 h | 1.56 Fold Increase | – | – | – | – | –
3 | COC(=O)[C@H](C)NP1(=O)OCC(C)(C)[C@H](C(=O)NCCC(=O)OCCN2CCCC2)O1 (stereo partly drawn) [compound 19, methyl ((4R)-5,5-dimethyl-2-oxido-4-((3-oxo-3-(2-(pyrrolidin-1-yl)ethoxy)propyl)carbamoyl)-1,3,2-dioxaphosphinan-2-yl)-L-alaninate] | – | 1.73 Fold Increase | 0.37 h | 1.26 h | 4.7 h | – | half-life at 3 µM [5]: < 9.6 min; t1/2, Mouse Plasma, Diastereoisomer B ([5]; 3 µM): <9.6 min; half-life at 3 µM ([6]; Diastereoisomer A (upfield shift in 31P NMR), read-out: t1/2, Human Plasma, Diastereoisomer A (converted)): 0.45 h; half-life at 3 µM ([6]; Diastereoisomer B, read-out: t1/2, Human Plasma, Diastereoisomer B (converted)): > 1 h; half-life at 5 µM [1, 11]: 0.31 h; half-life at 5 µM ([2]; Diastereoisomer B): 1.16 h; half-life at 1 mM [7, 12]: 3.7 h
4 | COC(=O)CCNC(=O)[C@@H]1O[P@@](=O)(OCc2ccccc2)OCC1(C)C [compound 56, methyl 3-((2S,4R)-2-(benzyloxy)-5,5-dimethyl-2-oxido-1,3,2-dioxaphosphinane-4-carboxamido)propanoate] | – | – | < 0.25 h | < 0.25 h | 4.6 h | – | Papp A→B at 60 min [3]: 18.7 ×10⁻⁶ cm/s
5 | COC(=O)CCNC(=O)[C@H](O)C(C)(C)COP1(=O)OCC(C)(C)[C@H](C(=O)NCCC(=O)OC)O1 (stereo partly drawn) [compound 59, methyl 3-((2R)-2-hydroxy-4-(((4R)-4-((3-methoxy-3-oxopropyl)carbamoyl)-5,5-dimethyl-2-oxido-1,3,2-dioxaphosphuian-2-yl)oxy)-3,3-dimethylbutanamido) propanoate] | – | 1.52 Fold Increase | 0.34 h | 2.89 h | 80 h | – | half-life at 5 µM [1, 11]: < 0.25 h; half-life at 5 µM ([2]; Diastereoisomer B): 1.54 h; half-life at 1 mM [7, 12]: 6 h
6 | COC(=O)CCNC(=O)[C@@H]1OP(N)(=O)OCC1(C)C (stereo partly drawn) [compound 114, methyl 3-((4R)-2-amino-5,5-dimethyl-2-oxido-1,3,2-dioxaphosphinane-4-carboxamido)propanoate] | > 40 h | – | – | – | – | > 40 h | –
7 | COC(=O)CCNC(=O)[C@@H]1OP(=O)(NCC2CCCO2)OCC1(C)C (stereo partly drawn) [compound 116, methyl 3-((4R)-5,5-dimethyl-2-oxido-2-(((tetrahydrofuran-2-yl)methyl)amino)-1,3,2-dioxaphosphinane-4-carboxamido)propanoate] | > 40 h | – | – | – | – | > 40 h | –
8 | COC(=O)CCNC(=O)[C@@H]1OP(=O)(N[C@H]2CN[C@@H](C(=O)OC)C2)OCC1(C)C (stereo partly drawn) [compound 132, methyl (2R,4R)-4-(((4R)-4-((3-methoxy-3-oxopropyl)carbamoyl)-5,5-dimethyl-2-oxido-1,3,2-dioxaphosphinan-2-yl)amino) pyrrolidine-2-carboxylate] | 4.8 h | 1.88 Fold Increase | – | – | – | 3.6 h | half-life at 5 µM [1, 8]: 0.91 h; half-life [2]: 2.39 h
